Measured values taken from patent US20210244858A1, “SOFT TISSUE FILLER COMPOSITION WITH HYALURONIC ACID AND BENZYL ALCOHOL” (Prollenium Medical Technologies, Inc., priority 2018, published 2021).
Like-named read-outs stand apart in the source and are kept apart here.

Tests used:
[1] = type: physicochemical; settings: for Benzyl alcohol mg/g (55° C.) / Lidocaine mg/g (45° C.): in REVANESSE dermal filler
Procedure: The benzyl alcohol product was held for 12 weeks at 55° C. which approximates 2 years shelf life; the amount of benzyl alcohol degraded by only 5.75%. In contrast, the amount of lidocaine degraded by 11.61% over 12 weeks at 45° C., which approximates to 1 year shelf life.

[2] = cited from earlier work
[3] = 0.05% to 5% solution; cited from earlier work
[4] = 5% solution, animal studies; cited from earlier work

| Structure (SMILES) | stability compared with lidocaine [1] | Benzyl alcohol mg/g (55° C.) ([1]; 0 weeks) | Benzyl alcohol mg/g (55° C.) ([1]; 4 weeks) | Benzyl alcohol mg/g (55° C.) ([1]; 8 weeks) | amount degraded ([1]; 12 weeks, 8.7 mg/g) | Benzyl alcohol mg/g (55° C.) ([1]; 12 weeks) | injection pain and anesthesia duration ([2]; in combination with lidocaine (1%)) | duration of anesthetic effect compared with lidocaine ([2]; in vivo) | injection pain compared with plain lidocaine ([2]; injection) | anesthetic effectiveness [3] | safety [4] | Lidocaine mg/g (45° C.) ([1]; 0 weeks) | Lidocaine mg/g (45° C.) ([1]; 4 weeks) | Lidocaine mg/g (45° C.) ([1]; 8 weeks) | amount degraded ([1]; 12 weeks, 3.1 mg/g) | Lidocaine mg/g (45° C.) ([1]; 12 weeks) |
| --- | --- | --- | --- | --- | --- | --- | --- | --- | --- | --- | --- | --- | --- | --- | --- | --- |
| OCc1ccccc1 [Benzyl alcohol, benzyl alcohol] | better than lidocaine | 8.7 mg/g | 8.7 mg/g | 8.6 mg/g | 5.75% | 8.2 mg/g | reduces injection pain as well as anesthesia duration | shorter duration than lidocaine | significantly less painful | considered somewhat effect | deemed safe | – | – | – | – | – |
| CCN(CC)CC(=O)Nc1c(C)cccc1C [Lidocaine, lidocaine, reference compound] | – | – | – | – | – | – | – | – | – | – | – | 3.1 mg/g | 2.9 mg/g | 2.82 mg/g | 11.61% | 2.74 mg/g |
